From ChEMBL document CHEMBL4004838, “Design and synthesis of novel phenyl -1, 4-beta-carboline-hybrid molecules as potential anticancer agents” (Eur J Med Chem, 2017)

Tests used:
Format in all cases: functional
CCRF-CEM = experiment: Growth inhibition of human CCRF-CEM cells assessed as cell growth at 10^-5 M incubated for 48 hrs by sulforhodamine B assay relative to control; settings: read-out: Activity
HL-60(TB) = experiment: Growth inhibition of human HL-60(TB) cells assessed as cell growth at 10^-5 M incubated for 48 hrs by sulforhodamine B assay relative to control; settings: HL-60, 48 h, read-out: Activity
K562 = experiment: Growth inhibition of human K562 cells assessed as cell growth at 10^-5 M incubated for 48 hrs by sulforhodamine B assay relative to control; settings: K562, 48 h, read-out: Activity
RPMI-8226 = experiment: Growth inhibition of human RPMI8226 cells assessed as cell growth at 10^-5 M incubated for 48 hrs by sulforhodamine B assay relative to control; settings: RPMI-8226, 48 h, read-out: Activity
SR = experiment: Growth inhibition of human SR cells assessed as cell growth at 10^-5 M incubated for 48 hrs by sulforhodamine B assay relative to control; settings: read-out: Activity
HOP-62 = experiment: Growth inhibition of human HOP62 cells assessed as cell growth at 10^-5 M incubated for 48 hrs by sulforhodamine B assay relative to control; settings: HOP-62, 48 h, read-out: Activity
HOP-92 = experiment: Growth inhibition of human HOP92 cells assessed as cell growth at 10^-5 M incubated for 48 hrs by sulforhodamine B assay relative to control; settings: HOP-92, 48 h, read-out: Activity
NCI-H460 = experiment: Growth inhibition of human NCI-H460 cells assessed as cell growth at 10^-5 M incubated for 48 hrs by sulforhodamine B assay relative to control; settings: NCI-H460, 48 h, read-out: Activity
COLO 205 = experiment: Growth inhibition of human COLO205 cells assessed as cell growth at 10^-5 M incubated for 48 hrs by sulforhodamine B assay relative to control; settings: COLO 205, 48 h, read-out: Activity
SW-620 = experiment: Growth inhibition of human SW620 cells assessed as cell growth at 10^-5 M incubated for 48 hrs by sulforhodamine B assay relative to control; settings: SW-620, 48 h, read-out: Activity
SNB-19 = experiment: Growth inhibition of human SNB19 cells assessed as cell growth at 10^-5 M incubated for 48 hrs by sulforhodamine B assay relative to control; settings: SNB-19, 48 h, read-out: Activity
MDA-MB-435 = experiment: Growth inhibition of human MDA-MB-435 cells assessed as cell growth at 10^-5 M incubated for 48 hrs by sulforhodamine B assay relative to control; settings: MDA-MB-435, 48 h, read-out: Activity
SK-MEL-2 = experiment: Growth inhibition of human SK-MEL-2 cells assessed as cell growth at 10^-5 M incubated for 48 hrs by sulforhodamine B assay relative to control; settings: SK-MEL-2, 48 h, read-out: Activity
SK-MEL-28 = experiment: Growth inhibition of human SK-MEL-28 cells assessed as cell growth at 10^-5 M incubated for 48 hrs by sulforhodamine B assay relative to control; settings: SK-MEL-28, 48 h, read-out: Activity
SK-MEL-5 = experiment: Growth inhibition of human SK-MEL-5 cells assessed as cell growth at 10^-5 M incubated for 48 hrs by sulforhodamine B assay relative to control; settings: SK-MEL-5, 48 h, read-out: Activity
OVCAR-4 = experiment: Growth inhibition of human OVCAR4 cells assessed as cell growth at 10^-5 M incubated for 48 hrs by sulforhodamine B assay relative to control; settings: OVCAR-4, 48 h, read-out: Activity
NCI/ADR-RES = experiment: Growth inhibition of human NCI-ADR-RES cells assessed as cell growth at 10^-5 M incubated for 48 hrs by sulforhodamine B assay relative to control; settings: read-out: Activity
SK-OV-3 = experiment: Growth inhibition of human SKOV3 cells assessed as cell growth at 10^-5 M incubated for 48 hrs by sulforhodamine B assay relative to control; settings: SK-OV-3, 48 h, read-out: Activity
786-0 = experiment: Growth inhibition of human 786-0 cells assessed as cell growth at 10^-5 M incubated for 48 hrs by sulforhodamine B assay relative to control; settings: 786-0, 48 h, read-out: Activity
CAKI-1 = experiment: Growth inhibition of human Caki1 cells assessed as cell growth at 10^-5 M incubated for 48 hrs by sulforhodamine B assay relative to control; settings: CAKI-1, 48 h, read-out: Activity
SN12C = experiment: Growth inhibition of human SN12C cells assessed as cell growth at 10^-5 M incubated for 48 hrs by sulforhodamine B assay relative to control; settings: read-out: Activity
UO-31 = experiment: Growth inhibition of human UO31 cells assessed as cell growth at 10^-5 M incubated for 48 hrs by sulforhodamine B assay relative to control; settings: UO-31, 48 h, read-out: Activity
PC-3 = experiment: Growth inhibition of human PC3 cells assessed as cell growth at 10^-5 M incubated for 48 hrs by sulforhodamine B assay relative to control; settings: PC-3, 48 h, read-out: Activity
DU-145 = experiment: Growth inhibition of human DU145 cells assessed as cell growth at 10^-5 M incubated for 48 hrs by sulforhodamine B assay relative to control; settings: DU-145, 48 h, read-out: Activity
BT-549 = experiment: Growth inhibition of human BT549 cells assessed as cell growth at 10^-5 M incubated for 48 hrs by sulforhodamine B assay relative to control; settings: BT-549, 48 h, read-out: Activity
T47D = experiment: Growth inhibition of human T47D cells assessed as cell growth at 10^-5 M incubated for 48 hrs by sulforhodamine B assay relative to control; settings: read-out: Activity
UACC-257 = experiment: Growth inhibition of human UACC257 cells assessed as cell growth at 10^-5 M incubated for 48 hrs by sulforhodamine B assay relative to control; settings: UACC-257, 48 h, read-out: Activity
IGROV-1 = experiment: Growth inhibition of human IGROV1 cells assessed as cell growth at 10^-5 M incubated for 48 hrs by sulforhodamine B assay relative to control; settings: IGROV-1, 48 h, read-out: Activity
HCT-15 = experiment: Growth inhibition of human HCT15 cells incubated for 48 hrs by sulforhodamine B assay; settings: HCT-15, 48 h
A549 = experiment: Growth inhibition of human A549/ATCC cells assessed as cell growth at 0.01 uM incubated for 48 hrs by sulforhodamine B assay relative to control; settings: A549, 48 h, read-out: Activity
A498 = experiment: Growth inhibition of human A498 cells assessed as cell growth at 1 uM incubated for 48 hrs by sulforhodamine B assay relative to control; settings: A498, 48 h, read-out: Activity
SF-539 = experiment: Growth inhibition of human SF539 cells assessed as cell growth at 100 uM incubated for 48 hrs by sulforhodamine B assay relative to control; settings: SF-539, 48 h, read-out: Activity

Structure (SMILES)	growth at 10 µM (CCRF-CEM)	growth at 10 µM (HL-60(TB))	growth at 10 µM (K562)	growth at 10 µM (RPMI-8226)	growth at 10 µM (SR)	growth at 10 µM (HOP-62)	growth at 10 µM (HOP-92)	growth at 10 µM (NCI-H460)	growth at 10 µM (COLO 205)	growth at 10 µM (SW-620)	growth at 10 µM (SNB-19)	growth at 10 µM (MDA-MB-435)	growth at 10 µM (SK-MEL-2)	growth at 10 µM (SK-MEL-28)	growth at 10 µM (SK-MEL-5)	growth at 10 µM (OVCAR-4)	growth at 10 µM (NCI/ADR-RES)	growth at 10 µM (SK-OV-3)	growth at 10 µM (CAKI-1)	growth at 10 µM (BT-549)	other results
c1ccc2[nH]c(-c3ccc(C4NCCc5c4[nH]c4ccccc54)cc3)nc2c1 (configuration not stated)	103%	97.9%	88.2%	97.3%	119%	89%	82.2%	104%	98.3%	99.1%	100%	101%	96.8%	102%	96.5%	97.9%	109%	95.6%	77.5%	93.2%	growth at 10 µM (786-0): 95.9%; growth at 10 µM (SN12C): 93.8%; growth at 10 µM (UO-31): 73.5%; growth at 10 µM (PC-3): 85%; growth at 10 µM (DU-145): 113%; growth at 10 µM (T47D): 90.8%
Cc1n[nH]c2c1C(c1ccc(C3NCCc4c3[nH]c3ccccc43)cc1)C(C#N)=C(N)O2 (configuration not stated)	83.7%	101%	74.3%	72.1%	113%	83%	88.8%	91.8%	92.4%	89.9%	94.2%	96.3%	86%	97.1%	89.4%	85.7%	96.3%	92%	63.2%	81.8%	growth at 10 µM (786-0): 97.4%; growth at 10 µM (SN12C): 87%; growth at 10 µM (UO-31): 53.9%; growth at 10 µM (PC-3): 72.3%; growth at 10 µM (DU-145): 105%; growth at 10 µM (T47D): 75.2%
Cc1ccc(S(=O)(=O)N2CCc3c([nH]c4ccccc34)C2c2ccc(-c3nc4ccccc4[nH]3)cc2)cc1 (configuration not stated)	106%	105%	106%	99.1%	97.2%	94.3%	102%	93%	92.1%	90.1%	91.3%	93.4%	81.6%	86%	89.8%	85.8%	88.9%	88.5%	73.5%	77.1%	growth at 10 µM (UACC-257): 102%; growth at 10 µM (IGROV-1): 86.5%; growth at 10 µM (786-0): 99.6%; growth at 10 µM (SN12C): 87.7%; growth at 10 µM (UO-31): 66.7%; growth at 10 µM (PC-3): 84.2%; growth at 10 µM (DU-145): 101%; growth at 10 µM (T47D): 89.1%
c1ccc2c3c([nH]c2c1)C(c1ccc(C2NCCc4c2[nH]c2ccccc42)cc1)NCC3 (racemic)																			-51%	57 to 86.9%	GI50 (HCT-15; read-out: pGI50 (converted)): 0.427 µM; TGI (HCT-15; read-out: pTGI (converted)): 1.78 µM; growth at 0.01 µM (A549): 104%; growth at 1 µM (A498): 65%; growth at 100 µM (SF-539): 97%
